Test system: C2C12 cells
Experiment: qRT-PCR of osteoblast differentiation transcripts in C2C12 cells
Format: cell-based, mouse
Conditions: C2C12, 10 μM
Experimental: For quantitative RT-PCR analysis of gene expression in C2C12 cultures, cells were treated for 2 days with 10 μM DIPQUO and harvested into Trizol reagent (Invitrogen). One microgram of RNA was reverse transcribed using the VILO-RT kit (Invitrogen) to generate cDNA, which was diluted 1:25 in RNase-free H2O for qPCR with Sybr green using the Roche 480 II LightCycler and the 2^−ΔΔCT method (Livak and Schmittgen, 2001). For analysis of osteoclast gene expression, RAW 264.7 cells were treated with DMSO, 50 ng/ml RANKL, or 10 μM DIPQUO for 4 days, then harvested into Trizol reagent and processed as above. Mouse qPCR primers are as follows. Runx2: F([…]) (SEQ ID NO:1); R([…]) (SEQ ID NO:2); Dlx5: F([…]) (SEQ ID NO:3); R([…]) (SEQ ID NO:4); Osterix: F([…]) (SEQ ID NO:5); R([…]) (SEQ ID NO:6); ALP: F([…]) (SEQ ID NO:7); R([…]) (SEQ ID NO:8); Osteocalcin: F([…]) (SEQ ID NO:9); R([…]) (SEQ ID NO:10); Osteoactivin: F([…]) (SEQ ID NO:11); R([…]) (SEQ ID NO:12); CTSK: F([…]) (SEQ ID NO:13); R([…]) (SEQ ID NO:14); MMP9: F([…]) (SEQ ID NO:15); R([…]) (SEQ ID NO:16); Gapdh F([…]) (SEQ ID NO:17); R([…]) (SEQ ID NO:18). RNA-seq studies were carried out with the assistance of the Weill Cornell Genomics Core Facility, using the Illumina HiSeq4000 next-generation sequencer to generate reads from cDNA libraries generated from three biological replicates of day 2 DMSO- or DIPQUO-treated C2C12 cells. Gene sets were clustered by biological/disease function using Ingenuity Pathway Analysis (Qiagen Bioinformatics). Heatmaps with hierarchical clustering were generated in R using the CRAN package for a subset of genes involved in bone morphogenesis. Following normalization of the RNA Sequencing counts in DeSeq, z-scores were computed across samples within each gene for use in the heatmap. The accession number for the sequencing data reported in this paper is NCBI GEO: GSE125052.

Structure (SMILES): Cc1cc(C)c2[nH]c(=O)c(-c3[nH]cnc3-c3ccccc3)cc2c1 [RU-0226606, 6,8-dimethyl-3-(4-phenyl-1H-imidazol-5-yl)quinolin-2(1H)-one]
- changes in expression of OCN and Osteoactivin (qRT-PCR) (2 days, compared with BMP-treated positive controls): much higher with DIPQUO treatment than in BMP-treated positive controls
- expression of Runx2 and Osterix (qRT-PCR) (2 days, vs DMSO): significant upregulation
- expression of ALP and OCN (qRT-PCR) (day 2, vs DMSO): substantially increased by day 2
